≈ marks a conversion by molar mass, not a printed value.
How the values were obtained:
Streptococcus pneumoniae [1] = test: Antibacterial activity against Streptococcus pneumoniae SP-3 by NCCLS method; assay type: functional
Streptococcus pyogenes [2] = test: Antibacterial activity against Streptococcus pyogenes SP1-1 by NCCLS method; assay type: functional
Staphylococcus aureus [3] = test: Antibacterial activity against Staphylococcus aureus UC76 by NCCLS method; assay type: functional, organism-based; conditions: read-out: MIC
DNA gyrase subunit B = DNA gyrase subunit B (Streptococcus pneumoniae serotype 4 (strain ATCC BAA-334 / TIGR4), UniProt P0A4L9); test: Inhibition of Streptococcus pneumoniae SP-3 gyrB by enzyme coupled phosphate assay
ParE = biological target: T1, ParE (Streptococcus pneumoniae, UniProt Q7X1P7); test: Inhibition of Streptococcus pneumoniae SP-3 parE after 30 mins
T1 sequence (Q7X1P7 whole entry): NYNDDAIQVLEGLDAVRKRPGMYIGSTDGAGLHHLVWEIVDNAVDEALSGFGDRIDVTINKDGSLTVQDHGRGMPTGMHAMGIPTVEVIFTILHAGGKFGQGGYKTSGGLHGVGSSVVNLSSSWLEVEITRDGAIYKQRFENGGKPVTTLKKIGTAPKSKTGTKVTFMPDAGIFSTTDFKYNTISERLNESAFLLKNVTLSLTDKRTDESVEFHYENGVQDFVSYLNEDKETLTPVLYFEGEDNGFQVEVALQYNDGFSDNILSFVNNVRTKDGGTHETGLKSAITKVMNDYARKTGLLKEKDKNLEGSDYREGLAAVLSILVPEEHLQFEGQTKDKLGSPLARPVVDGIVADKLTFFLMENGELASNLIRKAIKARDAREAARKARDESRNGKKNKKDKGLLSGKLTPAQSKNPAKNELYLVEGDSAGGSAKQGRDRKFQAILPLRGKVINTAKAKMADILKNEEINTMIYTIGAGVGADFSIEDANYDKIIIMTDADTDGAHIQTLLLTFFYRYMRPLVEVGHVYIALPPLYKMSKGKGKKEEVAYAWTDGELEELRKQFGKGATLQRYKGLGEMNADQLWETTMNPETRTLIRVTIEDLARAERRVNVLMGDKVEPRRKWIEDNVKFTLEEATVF

Streptococcus pneumoniae [4] = test: Antibacterial activity against fluoroquinolone resistant Streptococcus pneumoniae SP-3765 by NCCLS method; assay type: functional
Staphylococcus aureus [5] = test: Antibacterial activity against methicillin resistant Staphylococcus aureus SA-1417 by NCCLS method; assay type: functional
Streptococcus pyogenes [6] = test: Antibacterial activity against Streptococcus pyogenes SP1-1 infected in po dosed mouse sepsis model; assay type: functional; conditions: SP1-1, po, read-out: PD50
[7] = Clearance in rat; assay type: ADME, organism-based; conditions: in vivo
Streptococcus pneumoniae [8] = test: Antibacterial activity against Streptococcus pneumoniae SV-1 infected in po dosed mouse lung; assay type: functional; conditions: SV-1, po, read-out: PD50
[9] = Bioavailability in rat; assay type: ADME, organism-based; conditions: in vivo
[10] = Volume of distribution in rat; assay type: ADME, organism-based; conditions: in vivo

Sequence of DNA gyrase subunit B (P0A4L9 whole entry): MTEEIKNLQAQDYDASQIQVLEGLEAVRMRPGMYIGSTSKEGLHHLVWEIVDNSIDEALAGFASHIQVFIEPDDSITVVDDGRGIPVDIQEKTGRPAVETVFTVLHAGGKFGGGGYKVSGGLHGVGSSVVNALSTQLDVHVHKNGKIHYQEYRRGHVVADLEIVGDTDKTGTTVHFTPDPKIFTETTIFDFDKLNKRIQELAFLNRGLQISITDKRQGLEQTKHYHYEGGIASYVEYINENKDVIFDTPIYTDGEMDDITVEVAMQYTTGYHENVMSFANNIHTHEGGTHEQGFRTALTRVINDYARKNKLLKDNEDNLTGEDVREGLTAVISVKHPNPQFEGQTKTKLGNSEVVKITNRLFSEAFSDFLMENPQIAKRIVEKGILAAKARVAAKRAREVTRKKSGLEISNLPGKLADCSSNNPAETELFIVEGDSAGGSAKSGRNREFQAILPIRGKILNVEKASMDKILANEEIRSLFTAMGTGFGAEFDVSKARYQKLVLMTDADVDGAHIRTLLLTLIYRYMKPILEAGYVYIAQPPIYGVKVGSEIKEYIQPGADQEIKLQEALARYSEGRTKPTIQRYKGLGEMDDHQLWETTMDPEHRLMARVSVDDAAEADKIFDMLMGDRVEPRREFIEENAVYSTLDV

| Structure (SMILES) | MIC (Streptococcus pneumoniae [1]) [µg/mL] | MIC (Streptococcus pyogenes [2]) [µg/mL] | MIC (Staphylococcus aureus [3]) [µg/mL] | IC50 (DNA gyrase subunit B) [nM] | IC50 (ParE) [nM] | MIC (Streptococcus pneumoniae [4]) [µg/mL] | MIC (Staphylococcus aureus [5]) [µg/mL] | ED50 (Streptococcus pyogenes [6]) [mg/kg] | clearance [7] [mL/min/kg] | ED50 (Streptococcus pneumoniae [8]) [mg/kg] | bioavailability [9] [%] | Vd [10] [L/kg] |
| --- | --- | --- | --- | --- | --- | --- | --- | --- | --- | --- | --- | --- |
| CCNC(=O)Nc1cn2c(-c3ncccn3)cc(-c3cncnc3)cc2n1 | 0.125 (≈ 0.347 µM) | 0.5 (≈ 1.39 µM) | 0.5 (≈ 1.39 µM) | 75 | 280 | 0.125 (≈ 0.347 µM) | – | – | – | – | – | – |
| CCNC(=O)Nc1cn2c(-c3ncc(C)cn3)cc(-c3cnc(N4CCCC4)nc3)cc2n1 | 0.125 (≈ 0.282 µM) | 0.25 (≈ 0.564 µM) | 0.5 (≈ 1.13 µM) | 244 | 366 | 0.06 (≈ 0.135 µM) | – | – | – | – | – | – |
| CCNC(=O)Nc1cn2c(-c3ncc(Cl)cn3)cc(-c3cccnc3)cc2n1 | 0.06 (≈ 0.152 µM) | 0.125 (≈ 0.317 µM) | 0.25 (≈ 0.635 µM) | 149 | 419 | 0.03 (≈ 0.0762 µM) | 0.25 (≈ 0.635 µM) | – | – | – | – | – |
| CCNC(=O)Nc1cn2c(-c3ncccn3)cc(-c3cccnc3)cc2n1 | 0.125 (≈ 0.348 µM) | 0.25 (≈ 0.696 µM) | 0.5 (≈ 1.39 µM) | 48 | 447 | 0.25 (≈ 0.696 µM) | 0.5 (≈ 1.39 µM) | 24 | 33 | 35 | 56 | 1.6 |
| Cc1cnc(-c2cc(-c3cccnc3)cc3nc(NC(=O)NC4CC4)cn23)nc1 | 1 (≈ 2.59 µM) | 16 (≈ 41.5 µM) | 64 (≈ 166 µM) | 295 | 571 | 0.25 (≈ 0.649 µM) | > 64 | – | – | – | – | – |
| CNC(=O)Nc1cn2c(-c3ncc(C)cn3)cc(-c3cccnc3)cc2n1 | 1 (≈ 2.78 µM) | 2 (≈ 5.56 µM) | 4 (≈ 11.1 µM) | 92 | 629 | 0.25 (≈ 0.696 µM) | – | – | – | – | – | – |
| CCNC(=O)Nc1cn2c(-c3nc(C(F)(F)F)cc(C(F)(F)F)n3)cc(-c3cccnc3)cc2n1 | 0.25 (≈ 0.505 µM) | 1 (≈ 2.02 µM) | 2 (≈ 4.04 µM) | 242 | 745 | 0.125 (≈ 0.252 µM) | 4 (≈ 8.07 µM) | – | – | – | – | – |
| CCOC(=O)Nc1cn2c(-c3nccc(C)n3)cc(-c3cnc(N(C)C)nc3)cc2n1 | 0.5 (≈ 1.19 µM) | 0.25 (≈ 0.597 µM) | 64 (≈ 153 µM) | 1380 | 6220 | 0.125 (≈ 0.299 µM) | – | – | – | – | – | – |
| CCNC(=O)Nc1cn2c(-c3ncc(C)cn3)cc(-c3ccn(CC(=O)O)c(=O)c3)cc2n1 | 64 (≈ 143 µM) | 64 (≈ 143 µM) | 64 (≈ 143 µM) | 98 | 2140 | 64 (≈ 143 µM) | 32 (≈ 71.5 µM) | – | – | – | – | – |
| CCNC(=O)Nc1cn2c(-c3nc(C)cc(C)n3)cc(-c3cccnc3)cc2n1 | 0.5 (≈ 1.29 µM) | 1 (≈ 2.58 µM) | 1 (≈ 2.58 µM) | 198 | 541 | 0.5 (≈ 1.29 µM) | 4 (≈ 10.3 µM) | – | – | – | – | – |
| CCNC(=O)Nc1cn2c(-c3ncc(C)cn3)cc(-c3ccn(CCOC)c(=O)c3)cc2n1 | 0.06 (≈ 0.134 µM) | 0.06 (≈ 0.134 µM) | 0.06 (≈ 0.134 µM) | 401 | 1640 | 0.125 (≈ 0.279 µM) | 0.25 (≈ 0.559 µM) | – | – | – | – | – |
| CCNC(=O)Nc1cn2c(-c3ncc(F)cn3)cc(-c3cccnc3)cc2n1 | 0.125 (≈ 0.331 µM) | 0.5 (≈ 1.32 µM) | 1 (≈ 2.65 µM) | 56 | 364 | 0.125 (≈ 0.331 µM) | – | – | – | – | – | – |
| CCNC(=O)Nc1cn2c(-c3ncccn3)cc(-c3cnc(N(C)C)nc3)cc2n1 | 0.125 (≈ 0.31 µM) | 0.25 (≈ 0.62 µM) | 1 (≈ 2.48 µM) | 137 | 611 | 0.125 (≈ 0.31 µM) | – | – | – | – | – | – |
| CCNC(=O)Nc1cn2c(-c3ncc(C)cn3)cc(-c3ccn(CCF)c(=O)c3)cc2n1 | 0.125 (≈ 0.287 µM) | 0.5 (≈ 1.15 µM) | 0.5 (≈ 1.15 µM) | 376 | 10000 | 0.5 (≈ 1.15 µM) | 1 (≈ 2.3 µM) | – | – | – | – | – |
| CCNC(=O)Nc1cn2c(-c3nc(C)cc(C(F)(F)F)n3)cc(-c3cccnc3)cc2n1 | 0.25 (≈ 0.566 µM) | 0.5 (≈ 1.13 µM) | 0.5 (≈ 1.13 µM) | 216 | 546 | 0.125 (≈ 0.283 µM) | 1 (≈ 2.27 µM) | – | – | – | – | – |
| Cc1cnc(-c2cc(-c3cccnc3)cc3nc(NC(=O)N(C)C(F)(F)F)cn23)nc1 | 0.25 (≈ 0.585 µM) | 16 (≈ 37.4 µM) | 8 (≈ 18.7 µM) | 368 | 504 | 0.125 (≈ 0.292 µM) | 4 (≈ 9.36 µM) | – | – | – | – | – |
| CCNC(=O)Nc1cn2c(-c3nccc(C4CC4)n3)cc(-c3cccnc3)cc2n1 | 0.125 (≈ 0.313 µM) | 1 (≈ 2.5 µM) | 0.5 (≈ 1.25 µM) | 330 | 3750 | 0.25 (≈ 0.626 µM) | 0.5 (≈ 1.25 µM) | – | – | – | – | – |
